In paper PMC6950567, “Evaluation of Marine Diindolinonepyrane in Vitro and in Vivo: Permeability Characterization in Caco-2 Cells Monolayer and Pharmacokinetic Properties in Beagle Dogs” (Marine Drugs, 2019):
Entries after “also recorded” stand apart in the source; their conditions may differ. Read-outs that look alike come from different tables or passages of the source.

How the values were obtained:
[1] = Tissue distribution after intravenous injection in beagle dogs; assay type: in vivo; conditions: 7.5 mg/kg
Description: Moreover, another three dogs were fasted for 24 h with water ad libidum for the tissue distribution study. 2,5-BHPA was administered by intravenous injection at 7.5 mg/kg. Subsequently, their brain, stomach (emptied of gastric contents), heart, large intestine (emptied of gastric contents), liver, kidneys, spleen, urine, lungs, spermary, small intestine (emptied of gastric contents), feces, muscle, bile of dogs were removed at 60 min after compound administration. The tissues were flushed with normal saline, dried, weighed, and homogenized in proper methanol (methanol:sample = 5:1, V/V). The tissue samples were centrifuged at 5000× g for 15 min at RT, and the supernatants were filtered with a 0.22 µm disposable syringe filter for HPLC detection.

[2] = Caco-2 cells monolayer absorption and bidirectional transport experiment; assay type: in vitro ADME, human; conditions: human
Description: (§1) The samples included three control drugs (fenoterol, propranolol, and digoxin) and 2,5-BHPA. […] For transfer in the AP→BL direction, 0.075 mL drug solution was added to the AP side as the supply pool, and 0.25 mL HBSS solution was added to the BL side as the receiving pool. In the BL→AP direction, 0.25 mL compound solution was added to the BL side as the supply pool, and 0.075 mL HBSS solution was added to the AP side as the receiving pool. The transwell plate was then cultured in an incubator at 37 °C for 2 h. Samples on the AP side and BL side were collected, respectively. Then, acetonitrile containing an internal label was added to each upper chamber to lyse transport membranes. The total recovery was calculated by collecting the amount of lead compound absorbed on the membrane surface or accumulated in the cell. Finally, the concentration of each sample was calculated as the ratio of the peak area between the compound and the inner target through mass spectrum analysis (API 4000).
(§2) Papp = (dCr/dt) × Vr/(A × C0)(2) where dCr/dt is the cumulative compound concentration per unit of time (µM/s); Vr is the volume in the receiving hole (mL); A is the transport membrane area; and C0 is the compound initiation concentration (µM).

Caco-2 cells monolayer = assay: as above; assay type: in vitro ADME, human
Description: as §1, §2

[3] = 5 µM, 0.1% bull serum albumin added
[4] = 15 µM, 0.1% bull serum albumin added
[5] = 25 µM, 0.1% bull serum albumin added

detection in the brain ([1]; 60 min after intravenous injection): detected in the brain | efflux ratio at 2 h, 0.5 µM ([2]; Caco-2, 0.5 μM, no BSA): 1.13 | Papp A→B at 2 h, 0.5 µM ([2]; Caco-2, 0.5 μM, no BSA, 2 h, read-out: Mean Papp AP to BL): 0.493 ± 0.016 ×10⁻⁶ cm/s | Papp B→A at 2 h, 0.5 µM ([2]; Caco-2, 0.5 μM, no BSA, 2 h, read-out: Mean Papp BL to AP): 0.555 ± 0.09 ×10⁻⁶ cm/s | efflux ratio at 2 h, 2 µM ([2]; Caco-2, 2 μM, no BSA): 1.55 | Papp A→B at 2 h, 2 µM ([2]; Caco-2, 2 μM, no BSA, 2 h, read-out: Mean Papp AP to BL): 0.048 ± 0.006 ×10⁻⁶ cm/s | Papp B→A at 2 h, 2 µM ([2]; Caco-2, 2 μM, no BSA, 2 h, read-out: Mean Papp BL to AP): 0.065 ± 0.005 ×10⁻⁶ cm/s | efflux ratio at 2 h, 5 µM ([2]; Caco-2, 5 µM, 0.1% bull serum albumin added): 1.56 | Papp A→B at 2 h, 5 µM ([2]; Caco-2, 5 µM, 0.1% bull serum albumin added, read-out: Mean Papp AP to BL): 0.097 ± 0.005 ×10⁻⁶ cm/s | Papp B→A at 2 h, 5 µM ([2]; Caco-2, 5 µM, 0.1% bull serum albumin added, read-out: Mean Papp BL to AP): 0.153 ± 0.012 ×10⁻⁶ cm/s | efflux ratio at 2 h, 5 µM ([2]; Caco-2, 5 μM, no BSA): 1.06 | Papp A→B at 2 h, 5 µM ([2]; Caco-2, 5 μM, no BSA, 2 h, read-out: Mean Papp AP to BL): 0.044 ± 0.003 ×10⁻⁶ cm/s | Papp B→A at 2 h, 5 µM ([2]; Caco-2, 5 μM, no BSA, 2 h, read-out: Mean Papp BL to AP): 0.043 ± 0.004 ×10⁻⁶ cm/s | efflux ratio at 2 h, 15 µM ([2]; Caco-2, 15 µM, 0.1% bull serum albumin added): 2.91 | Papp A→B at 2 h, 15 µM ([2]; Caco-2, 15 µM, 0.1% bull serum albumin added, read-out: Mean Papp AP to BL): 0.045 ± 0.002 ×10⁻⁶ cm/s | Papp B→A at 2 h, 15 µM ([2]; Caco-2, 15 µM, 0.1% bull serum albumin added, read-out: Mean Papp BL to AP): 0.132 ± 0.035 ×10⁻⁶ cm/s | efflux ratio at 2 h, 25 µM ([2]; Caco-2, 25 µM, 0.1% bull serum albumin added): 1.49 | Papp A→B at 2 h, 25 µM ([2]; Caco-2, 25 µM, 0.1% bull serum albumin added, read-out: Mean Papp AP to BL): 0.146 ± 0.009 ×10⁻⁶ cm/s | Papp B→A at 2 h, 25 µM ([2]; Caco-2, 25 µM, 0.1% bull serum albumin added, read-out: Mean Papp BL to AP): 0.216 ± 0.031 ×10⁻⁶ cm/s | Papp at 2 h ([2]; Caco-2, text summary of Table 2, 0.1% BSA added, read-out: Papp, AP→BL or BL→AP direction): ≤ 2.5 ×10⁻⁶ cm/s | recovery at 2 h ([2]; Caco-2, text summary of Table 2, 0.1% BSA added, read-out: total recovery rate): > 90% | Papp at 2 h ([2]; Caco-2, text summary, no BSA, over the concentrations tested, read-out: Papp range): 0.04 to 0.49 ×10⁻⁶ cm/s | recovery at 2 h ([2]; Caco-2, text summary, no BSA, over the concentrations tested, read-out: total recovery rate AP→BL): 35.8 to 52.4% | recovery at 2 h ([2]; Caco-2, text summary, no BSA, over the concentrations tested, read-out: total recovery rate BL→AP): 25.9 to 53% | Recoveries AP to BL (Caco-2 cells monolayer; 0.5 μM, no BSA): 8.745 ± 0.155% | Recoveries BL to AP (Caco-2 cells monolayer; 0.5 μM, no BSA): 25.54 ± 1.55% | Total Recoveries AP to BL (Caco-2 cells monolayer; 0.5 μM, no BSA): 35.77 ± 1.29% | Total Recoveries BL to AP (Caco-2 cells monolayer; 0.5 μM, no BSA): 25.48 ± 1.13% | transport mechanism in the Caco-2 model (Caco-2 cells monolayer; 2 µM to 25 µM): may involve passive diffusion | Recoveries AP to BL (Caco-2 cells monolayer; 2 μM, no BSA): 13.419 ± 0.566% | Recoveries BL to AP (Caco-2 cells monolayer; 2 μM, no BSA): 47.16 ± 1.32% | Total Recoveries AP to BL (Caco-2 cells monolayer; 2 μM, no BSA): 39.67 ± 1.47% | Total Recoveries BL to AP (Caco-2 cells monolayer; 2 μM, no BSA): 47.69 ± 2.10% | Recoveries AP to BL (Caco-2 cells monolayer; [3]): 85.52 ± 2.34% | Recoveries BL to AP (Caco-2 cells monolayer; [3]): 96.32 ± 5.15% | Total Recoveries AP to BL (Caco-2 cells monolayer; [3]): 92.83 ± 3.44% | Total Recoveries BL to AP (Caco-2 cells monolayer; [3]): 96.41 ± 3.52% | Recoveries AP to BL (Caco-2 cells monolayer; 5 μM, no BSA): 26.76 ± 1.02% | Recoveries BL to AP (Caco-2 cells monolayer; 5 μM, no BSA): 52.42 ± 2.20% | Total Recoveries AP to BL (Caco-2 cells monolayer; 5 μM, no BSA): 52.34 ± 4.34% | Total Recoveries BL to AP (Caco-2 cells monolayer; 5 μM, no BSA): 53.02 ± 2.01% | Recoveries AP to BL (Caco-2 cells monolayer; [4]): 84.85 ± 3.36% | Recoveries BL to AP (Caco-2 cells monolayer; [4]): 96.18 ± 6.56% | Total Recoveries AP to BL (Caco-2 cells monolayer; [4]): 92.83 ± 4.26% | Total Recoveries BL to AP (Caco-2 cells monolayer; [4]): 96.97 ± 4.32% | Recoveries AP to BL (Caco-2 cells monolayer; [5]): 82.25 ± 2.28% | Recoveries BL to AP (Caco-2 cells monolayer; [5]): 89.52 ± 4.19% | Total Recoveries AP to BL (Caco-2 cells monolayer; [5]): 90.91 ± 4.63% | Total Recoveries BL to AP (Caco-2 cells monolayer; [5]): 89.63 ± 3.26% | permeability classification (Caco-2 cells monolayer; Papp ≤ 2.5 (×10^−6 cm·s^−1) indicated low permeability): low permeability
SMILES: CC(C)=CCCC(C)=CCCC1(C)Oc2c(c(O)cc3c2CN(CCCC(C(=O)O)N2Cc4c(cc(O)c5c4OC(C)(CCC=C(C)CCC=C(C)C)C(O)C5)C2=O)C3=O)CC1O (stereo not drawn) [2,5-BHPA, 2,5-Bis-[8-(4,8-dimethyl-nona-3,7-dienyl)-5,7-dihydroxy-8-methyl-3-keto-1,2,7,8-tertahydro-6H-pyran[a]isoindol-2-yl]-pentanoic acid]
concentration in different organs ([1]; 1 h after intravenous injection): concentration in the liver and bile was higher compared with other organs; also recorded: Lung, kidney, spleen, stomach, excrement, and urine contained moderate amounts; also recorded: highest 2,5-BHPA concentration level was detected in the liver
